Experimental data from patent US20240174680A1, “CDK2 INHIBITORS AND METHODS OF USING THE SAME” (Cedilla Therapeutics, Inc., priority 2021, published 2024).

Molecular target: CDK2/Cyclin E1 (Homo sapiens, UniProt P24941)
Experiment: CDK2/Cyclin E1 Caliper LabChip EZ Reader mobility shift assay
Format: biochemical
Set-up: purchased Eurofins 14-475
Conditions: read-out: Caliper Assay (CDK2/CCNE1): IC50
Experimental: Inhibition of CDK2/Cyclin E1 activity in the presence of compounds of the present disclosure was evaluated using a Caliper LabChip® EZ Reader mobility shift assay. In the assay, CDK2/Cyclin E1 (Eurofins, 14-475) catalyzed the phosphorylation of a fluorescently tagged peptide 5-FAM-QSPKKG-CONH2 (PerkinElmer, FL Peptide 18) which induced a difference in capillary electrophoresis mobility. The peptide substrate and product were measured, and the conversion ratio was used to determine the inhibition (as % activity and IC50 values) of CDK2/Cyclin E1. Reactions contained 50 mM HEPES pH 7.5, 10 mM MgCl2, 1 mM EDTA, 2 mM DTT, 0.01% Brij35, 0.5 mg/mL BSA, 0.1% DMSO, 2.5 nM CDK2/Cyclin E1, 100 μM ATP, and 1.5 μM fluorescent peptide substrate.
Dose titrations of inhibitors in 100% DMSO were combined with 3.25 nM CDK2/Cyclin E1 and 130 μM of ATP in reaction buffer. The mixtures were incubated for 30 minutes before the addition of fluorescent peptide substrate to initiate the kinase reaction. The final conditions were 2.5 nM CDK2/Cyclin E1, 100 μM ATP, and 1.5 μM fluorescent peptide. The reactions were stopped after 100 minutes with the addition of EDTA (400 mM final EDTA concentration). The stopped reactions were analyzed on a Caliper LabChip® EZ Reader II. The conversion ratios were normalized to yield % activity, plotted against compound concentration, and fit to a four-parameter equation to determine the IC50 for each compound.

Row | Structure (SMILES) | IC50
1 | CNC(=O)[C@@H](NC(=O)[C@H]1CN(C(=O)c2ccccn2)CC12CN(C(=O)[C@H]1CC1(C)C)C2)[C@@H](C)OCc1ccccc1 [I-45B] | > 10 µM
2 | CNC(=O)[C@@H](NC(=O)[C@@H]1CN(C(=O)c2ccncc2)CC12CN(C(=O)[C@H]1CC1(C)C)C2)[C@@H](C)OCc1ccccc1 [I-46A] | > 10 µM
3 | CNC(=O)[C@@H](NC(=O)[C@H]1CN(C(=O)c2ccncc2)CC12CN(C(=O)[C@H]1CC1(C)C)C2)[C@@H](C)OCc1ccccc1 [I-46B] | > 10 µM
4 | CNC(=O)[C@@H](NC(=O)[C@@H]1CN(Cc2cnn(C)c2)CC12CN(C(=O)[C@H]1CC1(C)C)C2)[C@@H](C)OCc1ccccc1 [I-47A] | > 10 µM
5 | CNC(=O)[C@@H](NC(=O)[C@@H]1CN(C(=O)Nc2cnn(Cc3ccccc3)c2)CC12CN(C(=O)[C@H]1CC1(C)C)C2)[C@@H](C)OCc1ccccc1 [I-48A, (S)—N6-(1-benzyl-1H-pyrazol-4-yl)-N8-((2S,3R)-3-(benzyloxy)-1-(methylamino)-1-oxobutan-2-yl)-2-((S)-2,2-dimethylcyclopropane-1-carbonyl)-2,6-diazaspiro[3.4]octane-6,8-dicarboxamide] | > 10 µM
6 | CNC(=O)[C@@H](NC(=O)[C@H]1CN(C(=O)Nc2cnn(Cc3ccccc3)c2)CC12CN(C(=O)[C@H]1CC1(C)C)C2)[C@@H](C)OCc1ccccc1 [I-48B] | > 10 µM
7 | CNC(=O)[C@@H](NC(=O)[C@H]1CN(Cc2cccnc2)CC12CN(C(=O)[C@H]1CC1(C)C)C2)[C@@H](C)OCc1ccccc1 [I-49B] | > 10 µM
8 | CNC(=O)[C@@H](NC(=O)[C@@H]1CN(Cc2cn[nH]c2)CC12CN(C(=O)[C@H]1CC1(C)C)C2)[C@@H](C)OCc1ccccc1 [I-50A] | > 10 µM
9 | CNC(=O)[C@@H](NC(=O)[C@H]1CN(Cc2cn[nH]c2)CC12CN(C(=O)[C@H]1CC1(C)C)C2)[C@@H](C)OCc1ccccc1 [I-50B] | > 10 µM
10 | CNC(=O)[C@@H](NC(=O)[C@@H]1CN(Cc2cncs2)CC12CN(C(=O)[C@H]1CC1(C)C)C2)[C@@H](C)OCc1ccccc1 [I-51A] | > 10 µM
11 | CNC(=O)[C@@H](NC(=O)[C@H]1CN(Cc2cncs2)CC12CN(C(=O)[C@H]1CC1(C)C)C2)[C@@H](C)OCc1ccccc1 [I-51B] | > 10 µM
12 | CNC(=O)[C@@H](NC(=O)[C@@H]1CN(C(=O)c2cnn(CC3CC3)c2)CC12CN(C(=O)CC1CC1)C2)[C@@H](C)OCc1ccccc1 [I-53A] | > 10 µM
13 | CNC(=O)[C@@H](NC(=O)[C@H]1CN(C(=O)c2cnn(CC3CC3)c2)CC12CN(C(=O)CC1CC1)C2)[C@@H](C)OCc1ccccc1 [I-53B] | > 10 µM
14 | CNC(=O)[C@@H](NC(=O)[C@@H]1CN(C(=O)c2cnn(Cc3ccccc3)c2)CC12CN(C(=O)C(C)C)C2)[C@@H](C)OCc1ccccc1 [I-54A] | 0.1 to 1 µM
15 | CNC(=O)[C@@H](NC(=O)[C@H]1CN(C(=O)c2cnn(Cc3ccccc3)c2)CC12CN(C(=O)C(C)C)C2)[C@@H](C)OCc1ccccc1 [I-54B] | > 10 µM
16 | CNC(=O)[C@@H](NC(=O)[C@@H]1CN(Cc2ccncc2)CC12CN(C(=O)[C@H]1CC1(C)C)C2)[C@@H](C)OCc1ccccc1 [I-55A] | > 10 µM
17 | CNC(=O)[C@@H](NC(=O)[C@H]1CN(Cc2ccncc2)CC12CN(C(=O)[C@H]1CC1(C)C)C2)[C@@H](C)OCc1ccccc1 [I-55B] | > 10 µM
18 | CNC(=O)[C@@H](NC(=O)[C@@H]1CN(C(=O)c2cnn(Cc3ccccc3)c2)CC12CN(C(=O)CC1CC1)C2)[C@@H](C)OCC1CCCCC1 [I-56A] | 0.1 to 1 µM
19 | CNC(=O)[C@@H](NC(=O)[C@H]1CN(C(=O)c2cnn(Cc3ccccc3)c2)CC12CN(C(=O)CC1CC1)C2)[C@@H](C)OCC1CCCCC1 [I-56B] | 1 to 10 µM

Row | Structure (SMILES) | IC50
20 | CC1(C)C[C@@H]1C(=O)N1CC2(CN(C(=O)c3cnn(Cc4ccccc4)c3)C[C@H]2C(=O)N2CCC(Cc3ccccc3)CC2)C1 [I-58A] | 0.1 to 1 µM
21 | CC1(C)C[C@@H]1C(=O)N1CC2(CN(C(=O)c3cnn(Cc4ccccc4)c3)C[C@@H]2C(=O)N2CCC(Cc3ccccc3)CC2)C1 [I-58B] | 1 to 10 µM
22 | CC1(C)C[C@@H]1C(=O)N1CC2(CN(C(=O)c3cnn(Cc4ccccc4)c3)C[C@H]2C(=O)NC2CCCN(C(=O)c3ccccc3)C2)C1 (stereo partly shown) [I-59A] | > 10 µM
23 | CC1(C)C[C@@H]1C(=O)N1CC2(CN(C(=O)c3cnn(Cc4ccccc4)c3)C[C@@H]2C(=O)NC2CCCN(C(=O)c3ccccc3)C2)C1 (stereo partly shown) [I-59B] | > 10 µM
24 | CCCC(=O)N1CC2(C1)CN(C(=O)c1cnn(Cc3ccccc3)c1)C[C@H]2C(=O)N[C@H](C(=O)NC)[C@@H](C)OCc1ccccc1 [I-60A] | 1 to 10 µM
25 | CCCC(=O)N1CC2(C1)CN(C(=O)c1cnn(Cc3ccccc3)c1)C[C@@H]2C(=O)N[C@H](C(=O)NC)[C@@H](C)OCc1ccccc1 [I-60B] | > 10 µM
26 | CC1(C)C[C@@H]1C(=O)N1CC2(CN(C(=O)c3cnn(Cc4ccccc4)c3)C[C@H]2C(=O)NC2CCN(C(=O)c3ccccc3)CC2)C1 [I-61A] | 1 to 10 µM
27 | CC1(C)C[C@@H]1C(=O)N1CC2(CN(C(=O)c3cnn(Cc4ccccc4)c3)C[C@@H]2C(=O)NC2CCN(C(=O)c3ccccc3)CC2)C1 [I-61B] | > 10 µM
28 | CNC(=O)[C@@H](NC(=O)[C@@H]1CN(C(=O)c2cnn(Cc3ccccc3)c2)CC12CN(C(=O)CC(C)(C)C)C2)[C@@H](C)OCc1ccccc1 [I-62A] | 0.1 to 1 µM
29 | CNC(=O)[C@@H](NC(=O)[C@H]1CN(C(=O)c2cnn(Cc3ccccc3)c2)CC12CN(C(=O)CC(C)(C)C)C2)[C@@H](C)OCc1ccccc1 [I-62B] | > 10 µM
30 | CC1(C)C[C@@H]1C(=O)N1CC2(CN(C(=O)c3cnn(Cc4ccccc4)c3)C[C@H]2C(=O)Nc2cccc(-c3ccccc3)c2)C1 [I-63A] | 1 to 10 µM
31 | CC1(C)C[C@@H]1C(=O)N1CC2(CN(C(=O)c3cnn(Cc4ccccc4)c3)C[C@@H]2C(=O)Nc2cccc(-c3ccccc3)c2)C1 [I-63B] | 1 to 10 µM
32 | COCC1CCCN(C(=O)[C@@H](NC(=O)C2CN(C(=O)c3cnn(Cc4ccccc4)c3)CC23CN(C(=O)[C@H]2CC2(C)C)C3)[C@@H](C)OCc2ccccc2)C1 (stereo partly shown) [I-64] | 0.01 to 0.1 µM
33 | CNC(=O)[C@@H](NC(=O)[C@@H]1CN(C(=O)c2cnn(Cc3ccccc3)c2)CC12CN(C(=O)C(C)(C)C)C2)[C@@H](C)OCc1ccccc1 [I-65A] | 0.01 to 0.1 µM
34 | CNC(=O)[C@@H](NC(=O)[C@H]1CN(C(=O)c2cnn(Cc3ccccc3)c2)CC12CN(C(=O)C(C)(C)C)C2)[C@@H](C)OCc1ccccc1 [I-65B] | > 10 µM
35 | CNC(=O)[C@@H](NC(=O)[C@@H]1CN(C(=O)c2cn[nH]c2)CC12CN(C(=O)[C@H]1CC1(C)C)C2)[C@@H](C)OCC1CCCCC1 [I-66A, (S)—N-((2S,3R)-3-(cyclohexylmethoxy)-1-(methylamino)-1-oxobutan-2-yl)-2-((S)-2,2-dimethylcyclopropane-1-carbonyl)-6-(1H-pyrazole-4-carbonyl)-2,6-diazaspiro[3.4]octane-8-carboxamide] | 0.01 to 0.1 µM
36 | CNC(=O)[C@@H](NC(=O)[C@H]1CN(C(=O)c2cn[nH]c2)CC12CN(C(=O)[C@H]1CC1(C)C)C2)[C@@H](C)OCC1CCCCC1 [I-66B] | 1 to 10 µM
37 | CNC(=O)[C@@H](NC(=O)[C@@H]1CN(C(=O)c2cnn(Cc3ccccc3)c2)CC12CN(C(=O)C1(C)CC1)C2)[C@@H](C)OCc1ccccc1 [I-67A, (S)-6-(1-benzyl-1H-pyrazole-4-carbonyl)-N-((2S,3R)-3-(benzyloxy)-1-(methylamino)-1-oxobutan-2-yl)-2-(1-methylcyclopropane-1-carbonyl)-2,6-diazaspiro[3.4]octane-8-carboxamide] | 0.1 to 1 µM
